Measured values as given in patent publication US10039756B2, “Reducing memory loss in mammals suffering from alzheimer's disease” (The Penn State Research Foundation, priority 2013, dated 2018).

Legend:
[1] = target: T1, α5-GABAA-Rs (Mus musculus, UniProt P22723+Q8BHJ7); test: Tonic current mediated by α5-GABAA-Rs, whole-cell patch clamp in hippocampal slices; assay type: cell-based
T1 construct: from tissue; host or cells: mouse hippocampal slices; dentate granule cells and CA1 pyramidal neurons
Protocol: Mice were anesthetized with 2.5% Avertin. After decapitation, brains were rapidly dissected out and placed in ice-cold cutting solution containing: 79 mM NaCl, 80 mM sucrose, 26 mM NaHCO3, 10 mM glucose, 2.5 mM KCl, 1.25 mM NaH2PO4, 7 mM MgSO4, and 0.5 mM CaCl2 for tonic current recordings. The cutting solution for field EPSP recordings contained: 230 mM sucrose, 26 mM NaHCO3, 20 mM glucose, 2.5 mM KCl, 1.25 mM NaH2PO4, 10 mM MgSO4, and 0.5 mM CaCl2. Both solutions were bubbled with 95% O2/5% CO2. Hippocampal slices were cut at 350 μm with a vibratome (VT1200S, Leica, Germany) and transferred to a transitional chamber containing one half of cutting solution and one half of standard artificial cerebrospinal fluid (ACSF). The ACSF was composed of: 125.0 mM NaCl, 2.5 mM KCl, 1.3 mM MgSO4, 26.0 mM NaHCO3, 1.25 mM NaH2PO4, 2.0 mM CaCl2, and mM 10 glucose (290-300 mOsmol; gassed with 95% O2/5% CO2, pH ˜7.4). Slices were then incubated in ACSF at 32° C. for 30 minutes to recover. Subsequently, slices were maintained at room temperature for another 30 minutes before recording. Individual slices were then transferred to a submerged recording chamber where they were continuously perfused (2-3 mL/minute) with ACSF saturated by 95% O2/5% CO2 at 32° C.
Whole-cell voltage clamp recordings were performed on dentate gyrus granule cells using a pipette solution containing: 135 mM CsCl, 5 mM Na-phosphocreatine, 10 mM HEPES, 5 mM EGTA, 4 mM MgATP, 5 mM QX-314, and 0.5 mM Na2GTP (pH 7.3 adjusted with CsOH, 280-290 mOsm/L). Pipette resistance was 2-5 MΩ, and series resistance was typically 20-40 MΩ. To record tonic GABA current, 10 μM CNQX and 50 μM DL-APV were added into the ACSF to block glutamate receptors. In some experiments, 5 μM GABA also was added into the ACSF to reveal larger tonic GABA current and increase the signal-to-noise ratio. […] The membrane potential was held at −70 mV. Data was acquired using pClamp 9 software (Molecular Devices; sampled at 10 kHz and filtered at 1 kHz), and analyzed with Clampfit 9.0 software (Molecular Devices). Field excitatory postsynaptic potentials (fEPSPs) were recorded with glass electrodes filled with 1 M NaCl and 25 mM HEPES (pH 7.3), and were evoked every 20 seconds with a parallel bipolar tungsten electrode (MicroProbes, USA), which was placed at medial perforant path in the dentate gyrus. Three evoked responses were averaged to obtain a data point. […]
The following was performed to investigate which subtype of GABAA-Rs mediate the enhanced tonic GABA current in AD dentate granule cells. […] Quantitatively, the tonic current blocked by L-655,708 in AD dentate granule cells was more than doubled that in WT animals (FIG. 5, panel e; WT, 35.4±6.3 pA, n=12; AD, 98.7±12.9 pA, n=9; p<0.001). […]

[2] = test system: LTP in DG; test: Long-term potentiation (LTP) in dentate gyrus, hippocampal slice field EPSP recordings; assay type: cell-based, mouse; conditions: 100 nM; 5xFAD dentate granule cells
Protocol: (§1) Mice were anesthetized with 2.5% Avertin. After decapitation, brains were rapidly dissected out and placed in ice-cold cutting solution containing: 79 mM NaCl, 80 mM sucrose, 26 mM NaHCO3, 10 mM glucose, 2.5 mM KCl, 1.25 mM NaH2PO4, 7 mM MgSO4, and 0.5 mM CaCl2 for tonic current recordings. The cutting solution for field EPSP recordings contained: 230 mM sucrose, 26 mM NaHCO3, 20 mM glucose, 2.5 mM KCl, 1.25 mM NaH2PO4, 10 mM MgSO4, and 0.5 mM CaCl2. Both solutions were bubbled with 95% O2/5% CO2. […]
(§2) Whole-cell voltage clamp recordings were performed on dentate gyrus granule cells using a pipette solution containing: 135 mM CsCl, 5 mM Na-phosphocreatine, 10 mM HEPES, 5 mM EGTA, 4 mM MgATP, 5 mM QX-314, and 0.5 mM Na2GTP (pH 7.3 adjusted with CsOH, 280-290 mOsm/L). […] Data was acquired using pClamp 9 software (Molecular Devices; sampled at 10 kHz and filtered at 1 kHz), and analyzed with Clampfit 9.0 software (Molecular Devices). Field excitatory postsynaptic potentials (fEPSPs) were recorded with glass electrodes filled with 1 M NaCl and 25 mM HEPES (pH 7.3), and were evoked every 20 seconds with a parallel bipolar tungsten electrode (MicroProbes, USA), which was placed at medial perforant path in the dentate gyrus. […]

[3] = test system: 5xFAD mice; test: Y-maze spontaneous alternation task; assay type: in vivo, mouse; conditions: 1 mg kg-1, i.p., once per day for one week, p<0.05
Protocol: L-655,708 was dissolved at 1 mg/mL in DMSO, and frozen in storage aliquots. The working solution was diluted 10 times in normal saline solution. […] The last injection was administrated 30 minutes before behavioral test.
Spontaneous alternation performance was tested as described elsewhere (Oakley et al., J. Neurosci., 26(40):10129-10140 (2006)). […] It allows the assessment of hippocampus-dependent spatial working memory. Each mouse was placed in the center of a symmetrical Y-maze and was allowed to explore freely through the maze during an 8 minute session. The first two minutes were not included for data analysis because mice were exploring new environment. The total number and the sequence of arm entries in the last 6 minutes were recorded and analyzed. Arm entry was defined as the hind paws of the mice had been completely placed in the arm. Analysis was done blind. The percentage of alternation is the number of triads containing entries into all three arms divided by the maximum possible alternations (the total number of arms entered minus 2)×100.
A behavioral analysis was conducted to test the effect of enhanced tonic inhibition on the cognitive function of 5xFAD animals. […] Therefore, it was concluded that the abnormal tonic inhibition in DG is an important contributing factor toward the learning and memory deficit in AD.

[4] = target: T2, human GAT-2 polypeptide (Homo sapiens, UniProt Q9NSD5); conditions: cited from earlier work
T2 sequence (Q9NSD5 1-602): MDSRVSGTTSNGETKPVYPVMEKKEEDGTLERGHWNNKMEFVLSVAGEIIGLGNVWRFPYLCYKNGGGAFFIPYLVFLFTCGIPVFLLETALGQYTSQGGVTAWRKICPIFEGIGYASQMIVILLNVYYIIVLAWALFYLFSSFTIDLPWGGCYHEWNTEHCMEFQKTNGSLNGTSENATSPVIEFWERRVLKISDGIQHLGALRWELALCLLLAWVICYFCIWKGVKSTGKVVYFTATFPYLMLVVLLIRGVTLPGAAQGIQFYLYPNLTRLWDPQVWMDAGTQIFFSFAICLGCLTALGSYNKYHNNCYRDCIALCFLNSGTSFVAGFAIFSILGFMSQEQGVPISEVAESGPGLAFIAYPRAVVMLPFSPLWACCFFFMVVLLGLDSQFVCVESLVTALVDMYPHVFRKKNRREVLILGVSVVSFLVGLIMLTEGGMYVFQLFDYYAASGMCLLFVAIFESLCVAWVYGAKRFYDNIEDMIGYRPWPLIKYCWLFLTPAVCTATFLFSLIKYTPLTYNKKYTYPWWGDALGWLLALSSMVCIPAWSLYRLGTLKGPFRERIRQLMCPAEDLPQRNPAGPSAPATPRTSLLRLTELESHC

[5] = target: human GAT-1 polypeptide (Homo sapiens, UniProt P30531); conditions: cited from earlier work
[6] = target: T3, human GAT-3 polypeptide (Homo sapiens, UniProt P48066); conditions: cited from earlier work
T3 sequence (P48066 1-632): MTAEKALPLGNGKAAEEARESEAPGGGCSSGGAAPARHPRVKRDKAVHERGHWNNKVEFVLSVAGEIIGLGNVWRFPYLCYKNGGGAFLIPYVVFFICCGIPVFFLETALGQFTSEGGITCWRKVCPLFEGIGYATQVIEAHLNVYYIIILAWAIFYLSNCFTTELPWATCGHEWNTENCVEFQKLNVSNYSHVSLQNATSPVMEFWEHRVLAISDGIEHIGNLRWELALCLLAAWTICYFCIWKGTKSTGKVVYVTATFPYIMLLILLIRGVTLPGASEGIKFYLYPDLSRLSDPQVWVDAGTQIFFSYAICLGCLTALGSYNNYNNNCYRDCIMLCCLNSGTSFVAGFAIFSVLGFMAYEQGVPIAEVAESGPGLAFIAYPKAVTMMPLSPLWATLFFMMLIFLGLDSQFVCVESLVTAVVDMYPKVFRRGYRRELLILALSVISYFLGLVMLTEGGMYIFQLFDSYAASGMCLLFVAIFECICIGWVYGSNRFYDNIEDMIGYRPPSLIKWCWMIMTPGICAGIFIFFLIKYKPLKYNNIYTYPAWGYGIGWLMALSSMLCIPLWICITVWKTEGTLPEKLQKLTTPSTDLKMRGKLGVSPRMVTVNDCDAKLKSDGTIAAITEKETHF

[7] = target: T4, neuronal GABA transporters (Mus musculus, UniProt P31648); test: Tonic current induced by blockade of neuronal GABA transporters in dentate granule cells; assay type: cell-based; conditions: P>0.4
T4 construct: from tissue; host or cells: mouse hippocampal slices, dentate granule cells
Protocol: FIG. 7, panel a, contains typical traces showing tonic current induced by blockade of neuronal GABA transporters with NO-711 (1-[2-[[(Diphenylmethylene)imino]oxy]ethyl]-1,2,5,6-tetrahydro-3-pyridinecarboxylic acid hydrochloride hydrochloride). Large mIPSCs were truncated to better illustrate the tonic current.
Mice were anesthetized with 2.5% Avertin. After decapitation, brains were rapidly dissected out and placed in ice-cold cutting solution containing: 79 mM NaCl, 80 mM sucrose, 26 mM NaHCO3, 10 mM glucose, 2.5 mM KCl, 1.25 mM NaH2PO4, 7 mM MgSO4, and 0.5 mM CaCl2 for tonic current recordings. […]
as §2

[8] = target: T5, δ-GABAA-Rs (Mus musculus, UniProt P22933+P63137+Q9D6F4); test: THIP-induced tonic current in dentate granule cells of hippocampal slices; assay type: cell-based; conditions: 2 μM, n=8
T5 construct: from tissue; host or cells: mouse hippocampal slices, dentate granule cells
Protocol: as §1, §2

T1 sequence (P63080 26-473): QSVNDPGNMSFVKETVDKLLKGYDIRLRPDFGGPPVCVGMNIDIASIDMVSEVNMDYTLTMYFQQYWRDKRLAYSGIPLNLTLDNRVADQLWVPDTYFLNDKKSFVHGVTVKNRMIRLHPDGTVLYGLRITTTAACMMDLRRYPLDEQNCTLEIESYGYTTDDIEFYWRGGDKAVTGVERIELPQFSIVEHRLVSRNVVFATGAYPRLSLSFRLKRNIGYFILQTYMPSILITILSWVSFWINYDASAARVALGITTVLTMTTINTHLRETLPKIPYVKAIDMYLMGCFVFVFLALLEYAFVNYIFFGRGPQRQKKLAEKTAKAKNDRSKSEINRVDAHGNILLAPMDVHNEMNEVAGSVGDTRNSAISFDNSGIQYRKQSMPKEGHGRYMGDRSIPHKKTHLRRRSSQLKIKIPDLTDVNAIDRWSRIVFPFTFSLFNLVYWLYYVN
T1 sequence (Q8BHJ7 32-463): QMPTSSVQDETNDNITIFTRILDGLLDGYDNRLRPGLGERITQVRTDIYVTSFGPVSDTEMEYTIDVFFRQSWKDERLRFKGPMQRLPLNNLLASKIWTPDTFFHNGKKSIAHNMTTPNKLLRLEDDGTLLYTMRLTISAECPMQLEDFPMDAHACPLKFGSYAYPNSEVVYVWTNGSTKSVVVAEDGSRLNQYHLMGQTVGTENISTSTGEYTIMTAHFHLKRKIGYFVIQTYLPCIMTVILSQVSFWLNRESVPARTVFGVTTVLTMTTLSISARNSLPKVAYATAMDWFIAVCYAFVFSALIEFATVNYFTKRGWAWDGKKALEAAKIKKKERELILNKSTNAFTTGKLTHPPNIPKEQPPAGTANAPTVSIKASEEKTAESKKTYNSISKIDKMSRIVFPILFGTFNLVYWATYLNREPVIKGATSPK
T1 sequence (P22723 39-474): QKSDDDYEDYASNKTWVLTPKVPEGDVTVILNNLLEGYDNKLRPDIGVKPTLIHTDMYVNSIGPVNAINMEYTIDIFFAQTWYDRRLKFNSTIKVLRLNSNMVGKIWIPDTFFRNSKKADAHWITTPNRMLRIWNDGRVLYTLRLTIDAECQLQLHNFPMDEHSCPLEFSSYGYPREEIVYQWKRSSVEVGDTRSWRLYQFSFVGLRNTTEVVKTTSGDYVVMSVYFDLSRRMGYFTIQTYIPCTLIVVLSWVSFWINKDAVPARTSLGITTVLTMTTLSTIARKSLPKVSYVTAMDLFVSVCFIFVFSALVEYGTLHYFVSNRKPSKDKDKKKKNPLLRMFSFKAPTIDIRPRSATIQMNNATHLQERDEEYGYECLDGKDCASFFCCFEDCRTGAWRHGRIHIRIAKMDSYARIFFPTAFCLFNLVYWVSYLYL
T5 sequence (P22933 17-449 limits assumed): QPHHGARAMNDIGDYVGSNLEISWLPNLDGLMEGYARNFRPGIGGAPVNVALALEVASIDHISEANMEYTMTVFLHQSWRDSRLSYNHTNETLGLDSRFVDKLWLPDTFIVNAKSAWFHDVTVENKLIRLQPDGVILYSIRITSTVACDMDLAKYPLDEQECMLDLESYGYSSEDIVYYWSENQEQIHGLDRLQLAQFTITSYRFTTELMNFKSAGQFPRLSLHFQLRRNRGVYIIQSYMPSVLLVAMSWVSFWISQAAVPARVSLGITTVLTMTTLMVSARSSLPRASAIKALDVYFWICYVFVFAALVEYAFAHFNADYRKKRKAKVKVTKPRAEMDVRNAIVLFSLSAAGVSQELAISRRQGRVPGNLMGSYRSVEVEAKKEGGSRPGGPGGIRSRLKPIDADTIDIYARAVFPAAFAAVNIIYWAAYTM
T5 sequence (Q9D6F4 36-552): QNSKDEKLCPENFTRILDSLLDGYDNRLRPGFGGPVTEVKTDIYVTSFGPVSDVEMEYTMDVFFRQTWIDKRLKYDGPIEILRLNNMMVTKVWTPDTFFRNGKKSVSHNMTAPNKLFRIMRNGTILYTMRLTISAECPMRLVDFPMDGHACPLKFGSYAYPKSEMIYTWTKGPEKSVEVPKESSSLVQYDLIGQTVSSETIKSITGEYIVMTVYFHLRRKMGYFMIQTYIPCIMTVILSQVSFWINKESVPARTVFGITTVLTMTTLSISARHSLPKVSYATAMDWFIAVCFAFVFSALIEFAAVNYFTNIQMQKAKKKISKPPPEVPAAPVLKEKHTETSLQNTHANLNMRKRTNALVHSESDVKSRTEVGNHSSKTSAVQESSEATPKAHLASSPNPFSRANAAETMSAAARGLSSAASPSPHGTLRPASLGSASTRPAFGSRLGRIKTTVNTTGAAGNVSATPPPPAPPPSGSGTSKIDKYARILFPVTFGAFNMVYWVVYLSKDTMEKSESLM
T5 sequence (P63137 25-474 limits assumed): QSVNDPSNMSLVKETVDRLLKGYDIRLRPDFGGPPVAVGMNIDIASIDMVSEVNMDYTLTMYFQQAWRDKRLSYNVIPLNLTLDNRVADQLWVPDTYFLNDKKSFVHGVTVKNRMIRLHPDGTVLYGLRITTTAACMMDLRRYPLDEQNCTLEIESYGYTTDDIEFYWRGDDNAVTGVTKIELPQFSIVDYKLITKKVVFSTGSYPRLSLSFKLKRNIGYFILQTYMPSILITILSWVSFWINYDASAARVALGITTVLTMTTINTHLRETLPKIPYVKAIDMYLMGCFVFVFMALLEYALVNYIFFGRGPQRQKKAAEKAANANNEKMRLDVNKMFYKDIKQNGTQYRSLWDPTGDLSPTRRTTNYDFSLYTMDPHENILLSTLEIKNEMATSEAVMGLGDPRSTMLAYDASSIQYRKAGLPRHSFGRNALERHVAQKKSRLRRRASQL
Sequence of human GAT-1 polypeptide (P30531 whole entry): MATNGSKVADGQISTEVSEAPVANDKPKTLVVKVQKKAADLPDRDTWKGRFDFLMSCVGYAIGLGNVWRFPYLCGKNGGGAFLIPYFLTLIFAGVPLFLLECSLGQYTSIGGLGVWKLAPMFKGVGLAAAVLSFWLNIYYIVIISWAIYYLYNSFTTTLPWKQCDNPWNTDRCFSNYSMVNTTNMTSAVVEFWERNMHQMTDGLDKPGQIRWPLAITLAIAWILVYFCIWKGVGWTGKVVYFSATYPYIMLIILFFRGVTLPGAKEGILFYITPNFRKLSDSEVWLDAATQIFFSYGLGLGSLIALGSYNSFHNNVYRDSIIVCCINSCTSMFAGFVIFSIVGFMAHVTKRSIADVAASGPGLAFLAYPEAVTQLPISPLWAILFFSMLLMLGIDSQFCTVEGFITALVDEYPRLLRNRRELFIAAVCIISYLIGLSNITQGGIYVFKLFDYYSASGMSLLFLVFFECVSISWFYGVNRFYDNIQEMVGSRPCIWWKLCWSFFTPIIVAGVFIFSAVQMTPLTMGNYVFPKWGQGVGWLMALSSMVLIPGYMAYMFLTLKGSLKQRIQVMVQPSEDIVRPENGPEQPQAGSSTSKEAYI

CCOC(=O)c1ncn2c1C1CCCN1C(=O)c1cc(OC)ccc1-2 [L-655,708, 11,12,13,13a-tetrahydro-7-methoxy-9-oxo-9H-imidazo[1,5-a]pyrrolo[2,1-c][1,4]benzodiaz-epine-1-carboxylic acid, ethyl ester]
block of tonic current ([1]; 100 nM, AD (5xFAD) dentate granule cells): majority of tonic current in AD dentate granule cells was blocked
tonic current blocked by L-655,708 ([1]; AD (5xFAD) dentate granule cells, n=9): 98.7±12.9 pA
proportion of tonic current blocked, WT vs AD ([1]; CA1 neurons): similar
tonic current blocked by L-655,708 ([1]; WT dentate granule cells, n=12): 35.4±6.3 pA
effect on LTP impairment [2]: rescued the LTP impairment
effect on memory deficit (spontaneous alternation) [3]: rescued the memory deficit

COc1ccc(C2(O)CCN(CCCn3c4ccccc4c4ccccc43)CC2)cc1 [NNC 05-2045, 1-(3-(9H-carbazol-9-yl)-1-propyl)-4-(4-methoxyphenyl)-4-piperidinol]
Ki [4]: > 10 µM
Ki [5]: > 20 µM
Ki [6]: < 10 µM

Cl.O=C(O)C1=CCCN(CCON=C(c2ccccc2)c2ccccc2)C1 [NO-711, 1-[2-[[(Diphenylmethylene)imino]oxy]ethyl]-1,2,5,6-tetrahydro-3-pyridinecarboxylic acid hydrochloride hydrochloride]
tonic currents revealed by NO-711, WT vs. 5xFAD [7]: no difference

Oc1noc2c1CCNC2 [THIP, 4,5,6,7-tetrahydroisoxazolo[5,4-c]pyridin-3-ol]
THIP-induced tonic current ([8]; AD (5xFAD) dentate granule cells): 60.7±10.4 pA
THIP-induced tonic current ([8]; WT dentate granule cells): 65.2±6.6 pA
